Results reported in patent US20220347175A1, “PYRIDAZINONE DERIVATIVE” (Sumitomo Dainippon Pharma Co., Ltd., priority 2018, published 2022).

Experiments:
[1] = target: T1, human Nav1.1 (Homo sapiens, UniProt P35498); test: Amplification of Nav1.1-derived voltage-dependent sodium current (Nav1.1 current), cell line stably expressing human Nav1.1, automated patch clamp; format: cell-based
T1 construct: host or cells: HEK293
Summary of the method: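 Amplification rate (%) is 100 × post-compound/pre-compound Nav1.1 peak current or AUC, minus 100. Ramp-evoked sodium currents were recorded by automated patch clamp in a human Nav1.1 HEK293 stable line, restricted to cells exceeding 500 pA, with compounds added in extracellular solution containing 1% DMSO.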

[2] = target: T2, human Nav1.5 (Homo sapiens, UniProt Q14524); test: Amplification of Nav1.5-derived voltage-dependent sodium current (Nav1.5 current), cell line stably expressing human Nav1.5, automated patch clamp; format: cell-based
T2 construct: expressed in transfected cells; host or cells: CHO-K1 (T-REx System, ThermoFisher Scientific)

[3] = 10 μmol/L compound, change of the area under the curve of Nav1.1 current (Test Result 1)
[4] = 10 μmol/L compound, change of the area under the curve of Nav1.5 current (Test Result 1)
[5] = compound 1 μmol/L, HEK293 stably expressing human Nav1.1, read-out: Nav1.1 current amplification rate (%)
[6] = compound 1 μmol/L, CHO-K1 stably expressing human Nav1.5, read-out: Nav1.5 current amplification rate (%)
[7] = compound 1 μmol/L, HEK293 stably expressing human Nav1.1
[8] = compound 1 μmol/L, CHO-K1 stably expressing human Nav1.5
[9] = compound 3 μmol/L, HEK293 stably expressing human Nav1.1
[10] = compound 3 μmol/L, CHO-K1 stably expressing human Nav1.5

T2 sequence (Q14524 1-2015 isoform Q14524-2): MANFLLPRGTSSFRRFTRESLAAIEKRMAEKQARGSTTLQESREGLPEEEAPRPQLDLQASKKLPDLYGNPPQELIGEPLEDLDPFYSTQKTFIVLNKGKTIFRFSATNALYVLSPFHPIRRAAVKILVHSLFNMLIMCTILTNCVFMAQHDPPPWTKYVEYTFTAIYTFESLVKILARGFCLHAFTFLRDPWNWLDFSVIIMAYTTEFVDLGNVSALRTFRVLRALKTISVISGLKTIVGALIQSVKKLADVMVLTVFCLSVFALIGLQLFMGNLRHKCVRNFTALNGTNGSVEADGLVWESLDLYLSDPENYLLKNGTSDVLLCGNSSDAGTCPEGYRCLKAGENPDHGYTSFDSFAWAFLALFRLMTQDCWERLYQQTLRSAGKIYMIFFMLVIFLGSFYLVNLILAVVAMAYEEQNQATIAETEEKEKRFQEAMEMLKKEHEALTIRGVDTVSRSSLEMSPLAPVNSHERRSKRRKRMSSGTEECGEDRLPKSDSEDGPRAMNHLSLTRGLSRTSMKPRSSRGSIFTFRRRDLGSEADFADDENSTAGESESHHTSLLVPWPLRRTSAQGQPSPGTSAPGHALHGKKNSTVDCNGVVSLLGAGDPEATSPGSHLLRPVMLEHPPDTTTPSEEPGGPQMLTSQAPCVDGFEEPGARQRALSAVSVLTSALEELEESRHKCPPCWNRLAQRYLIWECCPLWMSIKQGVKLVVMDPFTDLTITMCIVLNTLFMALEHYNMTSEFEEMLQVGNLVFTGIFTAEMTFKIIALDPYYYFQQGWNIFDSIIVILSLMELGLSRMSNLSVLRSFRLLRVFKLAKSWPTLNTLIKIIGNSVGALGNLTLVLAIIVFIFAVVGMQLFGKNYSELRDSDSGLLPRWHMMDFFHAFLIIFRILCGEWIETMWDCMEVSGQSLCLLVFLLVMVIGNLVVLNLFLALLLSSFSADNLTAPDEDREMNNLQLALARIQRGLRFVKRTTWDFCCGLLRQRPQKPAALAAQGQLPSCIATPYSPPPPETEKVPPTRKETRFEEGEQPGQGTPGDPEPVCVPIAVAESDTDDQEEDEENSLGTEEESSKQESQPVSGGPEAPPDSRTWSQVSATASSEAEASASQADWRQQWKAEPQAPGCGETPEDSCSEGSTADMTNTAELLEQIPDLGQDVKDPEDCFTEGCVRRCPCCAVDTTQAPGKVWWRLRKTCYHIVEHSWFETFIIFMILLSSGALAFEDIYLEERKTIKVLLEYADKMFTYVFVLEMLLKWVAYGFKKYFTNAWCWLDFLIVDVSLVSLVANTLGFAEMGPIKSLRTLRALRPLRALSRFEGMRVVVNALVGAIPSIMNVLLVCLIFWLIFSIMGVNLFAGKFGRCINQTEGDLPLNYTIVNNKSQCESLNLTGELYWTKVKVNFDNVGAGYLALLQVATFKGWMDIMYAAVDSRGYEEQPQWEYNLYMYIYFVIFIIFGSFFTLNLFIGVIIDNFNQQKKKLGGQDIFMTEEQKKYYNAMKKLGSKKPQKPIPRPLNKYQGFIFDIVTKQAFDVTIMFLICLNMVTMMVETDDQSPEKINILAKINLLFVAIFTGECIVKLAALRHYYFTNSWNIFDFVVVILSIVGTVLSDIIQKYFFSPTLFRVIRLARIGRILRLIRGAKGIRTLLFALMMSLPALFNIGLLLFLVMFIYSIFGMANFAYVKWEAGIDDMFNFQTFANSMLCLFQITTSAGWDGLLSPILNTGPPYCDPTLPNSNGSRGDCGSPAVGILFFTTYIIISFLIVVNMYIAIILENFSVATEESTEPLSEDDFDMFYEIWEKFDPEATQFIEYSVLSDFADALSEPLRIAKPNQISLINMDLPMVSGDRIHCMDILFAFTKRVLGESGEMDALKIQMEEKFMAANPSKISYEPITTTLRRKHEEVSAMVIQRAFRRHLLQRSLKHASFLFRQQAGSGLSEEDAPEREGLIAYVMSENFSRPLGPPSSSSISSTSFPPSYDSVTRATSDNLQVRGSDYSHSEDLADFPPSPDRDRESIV

SMILES	Nav1.1 current amplification rate (%) [1, 3]	Nav1.5 current amplification rate (%) [2, 4]	also measured
CC1(C)CC=C(c2ccc(=O)n(CC(=O)Nc3ccn4nccc4c3)n2)CC1 [Example 427]	172%	63%	–
CC1(C)CC=C(c2ccc(=O)n(CC(=O)Nc3ccc4ncnn4c3)n2)CC1 [Example 428, 2-[3-(4,4-dimethylcyclohex-1-en-1-yl)-6-oxopyridazin-1(6H)-yl]-N-([1,2,4]triazolo[1,5-a]pyridin-6-yl)acetamide]	–	–	activation at 1 µM [1, 5]: 109%; activation at 1 µM [2, 6]: 23%
CC1(C)CC=C(c2ccc(=O)n(CC(=O)Nc3ccn4ncnc4c3)n2)CC1 [Example 429, 2-[3-(4,4-dimethylcyclohex-1-en-1-yl)-6-oxopyridazin-1(6H)-yl]-N-([1,2,4]triazolo[1,5-a]pyridin-7-yl)acetamide]	–	–	activation at 1 µM [1, 5]: 101%; activation at 1 µM [2, 6]: 28%
CC1(C)CC=C(c2ccc(=O)n(CC(=O)N3CCc4c(N5CCOCC5)cccc43)n2)CC1 [Example 432]	–	–	Nav1.1 current amplification rate (%) [1, 7]: 280%; Nav1.5 current amplification rate (%) [2, 8]: 16%
CC1(C)CC=C(c2ccc(=O)n(CC(=O)N3CCc4c(C5CN(C(=O)CO)C5)cccc43)n2)CC1 [Example 437]	–	–	Nav1.1 current amplification rate (%) [1, 9]: 582%; Nav1.5 current amplification rate (%) [2, 10]: 194%
CC1(C)CC=C(c2ccc(=O)n(CC(=O)N3CCc4c(C5CN(C6COC6)C5)cccc43)n2)CC1 [Example 438]	–	–	Nav1.1 current amplification rate (%) [1, 9]: 404%; Nav1.5 current amplification rate (%) [2, 10]: 25%
CC1(C)CC=C(c2ccc(=O)n(CC(=O)N3CCN(c4cccnc4)CC3)n2)CC1 [Example 440]	196%	7%	–
CC1(C)CC=C(c2ccc(=O)n(CC(=O)N3CCC4(CCOCC4)CC3)n2)CC1 [Example 441]	30%	1%	–
Cc1cncc(N2CCN(C(=O)Cn3nc(C4=CCC(C)(C)CC4)ccc3=O)CC2)c1 [Example 442]	414%	27%	–
CC1(C)CC=C(c2ccc(=O)n(CC(=O)N3CCN(c4cncc(F)c4)CC3)n2)CC1 [Example 444]	292%	10%	–
CC1(C)CC=C(c2ccc(=O)n(CC(=O)Nc3ccc4ocnc4c3)n2)CC1 [Example 445, N-(1,3-benzooxazol-5-yl)-2-[3-(4,4-dimethylcyclohex-1-en-1-yl)-6-oxopyridazin-1(6H)-yl]acetamide]	–	–	activation at 10 µM ([1]; 10 μmol/L compound, change of the area under the curve of Nav1.1 current (Test Result 1), read-out: Nav1.1 current amplification rate (%)): 320%; activation at 10 µM ([2]; 10 μmol/L compound, change of the area under the curve of Nav1.5 current (Test Result 1), read-out: Nav1.5 current amplification rate (%)): 52%
O=C(Cn1nc(C2=CCC(C(F)(F)F)CC2)ccc1=O)Nc1ccc2ocnc2c1 (stereo not drawn) [Example 446]	333%	10%	–
COc1cc(C2=CCC(C(F)(F)F)CC2)nn(CC(=O)Nc2ccc3ocnc3c2)c1=O (stereo not drawn) [Example 447]	148%	6%	–
COc1cc(C2=CCC(C)CC2)nn(CC(=O)Nc2ccc3ocnc3c2)c1=O (stereo not drawn) [Example 449]	250%	12%	–
COc1cc(=O)n(CC(=O)Nc2ccc3ocnc3c2)nc1C1=CCC(C(F)(F)F)CC1 (stereo not drawn) [Example 450]	187%	5%	–
COc1cc(=O)n(CC(=O)Nc2ccc3ocnc3c2)nc1C1=CCC(C)(C)CC1 [Example 451]	365%	30%	–

SMILES	Nav1.1 current amplification rate (%) [1, 3]	Nav1.5 current amplification rate (%) [2, 4]	also measured
Cc1ccc(-c2ccc(=O)n(CC(=O)Nc3ccc4ocnc4c3)n2)cn1 [Example 452]	10%	2%	–
O=C(Cn1nc(-c2ccc(C(F)(F)F)nc2)ccc1=O)Nc1ccc2ocnc2c1 [Example 453]	15%	1%	–
O=C(Cn1nc(-c2cc(Cl)cs2)ccc1=O)Nc1ccc2ocnc2c1 [Example 454]	157%	35%	–
Cc1ccc(-c2ccc(=O)n(CC(=O)Nc3ccc4ocnc4c3)n2)s1 [Example 455]	131%	21%	–
COc1cc(C2=CCC(C)(C)CC2)nn(CC(=O)Nc2ccn3ccnc3c2)c1=O [Example 456]	224%	29%	–
O=C(Cn1nc(C2=CCCCC2)ccc1=O)Nc1ccn2ccnc2c1 [Example 458]	24%	0%	–
COc1cc(=O)n(CC(=O)Nc2ccn3ccnc3c2)nc1C1=CCC(C)(C)CC1 [Example 459]	118%	21%	–
Cc1cc(C2=CCC(C)(C)CC2)nn(CC(=O)Nc2ccn3ccnc3c2)c1=O [Example 460]	221%	46%	–
Cc1cc(=O)n(CC(=O)Nc2ccn3ccnc3c2)nc1C1=CCC(C)(C)CC1 [Example 461]	337%	50%	–
COc1cc(C2=CCC(C(F)(F)F)CC2)nn(CC(=O)Nc2ccn3ccnc3c2)c1=O (stereo not drawn) [Example 462]	124%	5%	–
COc1cc(C2=CCC(C)CC2)nn(CC(=O)Nc2ccn3ccnc3c2)c1=O (stereo not drawn) [Example 463]	218%	9%	–
O=C(Cn1nc(C2=CCC(F)(F)CC2)ccc1=O)Nc1ccn2ccnc2c1 [Example 464]	18%	1%	–
CC1(C)CC=C(c2ccc(=O)n(CC(=O)Nc3ccn4ccnc4c3)n2)C1 [Example 465]	186%	8%	–
COc1cc(-c2cc(Cl)cs2)nn(CC(=O)Nc2ccn3ccnc3c2)c1=O [Example 466]	233%	38%	–
COc1cc(C2=CCC(C)(C)CC2)nn(CC(=O)N2CCc3c(N4CCOCC4)cccc32)c1=O [Example 468]	–	–	Nav1.1 current amplification rate (%) [1, 7]: 275%; Nav1.5 current amplification rate (%) [2, 8]: 75%

Further lines, with some results ahead:

Nav1.1 current amplification rate (%) [1, 3]	SMILES	Nav1.5 current amplification rate (%) [2, 4]	also measured
28%	COc1ccc2c(c1)CCN2C(=O)Cn1nc(C2=CCC(C)(C)CC2)ccc1=O [Example 430]	22%	–
11%	COc1cccc2c1CCN2C(=O)Cn1nc(C2=CCC(C)(C)CC2)ccc1=O [Example 431]	3%	–
192%	CN1CCN(c2cccc3c2CCN3C(=O)Cn2nc(C3=CCC(C)(C)CC3)ccc2=O)CC1 [Example 433]	10%	–
232%	COC1CN(c2cccc3c2CCN3C(=O)Cn2nc(C3=CCC(C)(C)CC3)ccc2=O)C1 [Example 434]	142%	–
262%	COCOc1cccc2c1CCN2C(=O)Cn1nc(C2=CCC(C)(C)CC2)ccc1=O [Example 435]	14%	–
226%	CC1(C)CC=C(c2ccc(=O)n(CC(=O)N3CCc4c(OC5COC5)cccc43)n2)CC1 [Example 436]	31%	–
87%	CC1(C)CC=C(c2ccc(=O)n(CC(=O)N3CCN(c4ccccn4)CC3)n2)CC1 [Example 439]	−4%	–
114%	Cc1ccc(N2CCN(C(=O)Cn3nc(C4=CCC(C)(C)CC4)ccc3=O)CC2)cn1 [Example 443]	1%	–
243%	O=C(Cn1nc(C2=CCC(F)(F)CC2)ccc1=O)N1CCc2c(N3CCOCC3)cccc21 [Example 469]	25%	–
522%	COc1cc(=O)n(CC(=O)N2CCc3c(N4CCOCC4)cccc32)nc1C1=CCC(C)(C)CC1 [Example 470]	131%	–
633%	CC1(C)CC=C(c2ccc(=O)n(CC(=O)N3CCc4c(N5CCOCC5)cccc43)n2)C1 [Example 475]	70%	–
